Reference: PMC9769880, “Diverse Sensory Repertoire of Paralogous Chemoreceptors Tlp2, Tlp3, and Tlp4 in Campylobacter jejuni” (Microbiology Spectrum, 2022)
Like-named read-outs stand apart in the source and are kept apart here.

Tests used:
WT Tlp3^LBD = experiment: SPR competition assay (A-B-A inject); format: binding, Campylobacter jejuni; settings: 15 seconds after injection-B; glucose 300 µM, fucose 300 μM, malic acid 200 μM
Experimental: . Competition A-B-A analyses determine the specificity of the potential ligand-binding site preferences of WT Tlp3^LBD. The bound protein is saturated with the first analyte (A), followed by the introduction of a second analyte (B); the assay is designed to show whether a cumulative response is observed after the second analyte (B) is added. A cumulative response indicates two independent binding sites, whereas the lack of a cumulative response indicates a single site where ligands compete for binding, i.e., when analyte A occupies a ligand binding site, analyte B cannot bind. […] All response data were normalized to a 100-Da molecular weight for each analyte, allowing direct comparison of the responses. Both actual RU values and theoretical values are recorded for comparison.
Figure S6. […] A) Injections are […]
at 300 μM for 60 seconds). Final responses units (RU) of injections are recorded (indicated by dashed vertical […]
81 at 15 s econds after injection- B and l fu cose […]
and fucose were compet ed was 4.4 RU ± 0.46. As this value sits be low 5 RU, it indicates direct competition for […]
Final respons es units (RU) of injections ar e re cor ded (indicated […]
As this value sits between
5.07- 13.5 RU, it indicates direct competition for the same site with glucos e replacing some of the bound malic acid during the 60 second injection- B.

Tlp3 [1] = biological target: T1, Tlp3 (Campylobacter jejuni, UniProt Q0P864); experiment: Glycan/small molecule arrays with Tlp3; settings: yes/no binding
Experimental: (§1) Glycan (>400 monosaccharides or complex glycans) and small molecule arrays containing amino acids and salts were performed as described previously by Day et al. ([67]). Briefly, 1 μg of purified recombinant protein was complexed with anti-His antibody (Cell Signaling Technology) and rabbit anti-mouse/goat anti-rabbit Alexa 555-IgG (Thermo Scientific) at a molar ratio of 1:0.5:0.25 and then incubated on the array for […] in phosphate-buffered saline (PBS). The array slides were scanned at 488/520 nm and analyzed using InnoScan 1100 with MAPIX software. All arrays were performed in triplicate with a total of 12 data points for each glycan tested; the complete data set and MIRAGE (i.e., minimum information regarding a glycomics experiment) results are shown in Tables S3 and S8.
(§2) Table S8 - Supplementary glycan microarray document based on M IRAGE guidelines. D O I:
(§3) Classification Guidelines
(§4) 1. Sample: Glycan Binding Sample
(§5) Origin: Helicobacter pylori SS1; produced as a recombinant His - tagged protein in E.
(§6) The preparation of Tlp2,3, and 4 is explained in the Materials and Methods section:
(§7) Expression and purification of the periplasmic domain of Tlp2,3, and 4.
(§8) Sample Sample is a His Tagged protein containing only the periplasmic receptor domain of the modifications full length Tlp2,3, and 4transmembrane protein.
(§9) Please see Materials and Methods: Tlps 2/3/4 bind to a range of ligands, including […]
(§10) Proteins were complexed with mouse anti- his antibody, with secondary and tertiary AlexaFluor555 antibodies (rabbit anti-mouse, goat anti-rabbit) at a molar ratio of 4:2:1.
(§11) The protein/antibody complex was incubated on ice for 10 mins prior to placing on the Assay protocol array. Arrays were performed with 1 µg of complexed protein incubated on the array for 20 min. Arrays were then washed 3 times in Array PBS (PBS + 2mM MgCl2 + 2mM CaCl2) then dried by centrifugation for 3 min at 300 x g . Scanning was performed us ing an Innopsys InnoScan 1100AL and analyzed using Mapix (Innopsys). Yes/no binding was determined by six positive replicate spots in three replicate experiments. Positive […]
(§12) Glycan Glycans in this study are listed in Table S2 and is a published library in doi:
(§13) Glycans were prepared in one of two ways for printing:
(§14) Glycan 1. Glycans (with IDs in number/letter format; e.g. 1A, 4C, 7K) were sourced modifications commercially from Dextra Laboratories, Elicityl and Carbosythn and were made into glycoamines using the protocol published in Day et al 2009 (doi:
(§15) Glycan arrays: We only use glycan arrays as a yes/no binding tool. Due to this we look only at binding that is unambiguously above background vs lack of binding above background. Average background + 3x standard deviation of the background of 20 sets of 4 spots of DMF:DMSO only spots is applied to determine if binding observed is […]
(§16) Only spots with values equal to or greater than this value were considered as binding from data of any tested slide. These values are slide […]
(§17) Data Small molecule arrays: We only use amino acid arrays as a yes/no binding tool. Due interpretation to this we look only at binding that is unambiguously above background vs lack of binding above background. Average background + 3x standard deviation of the background of 6 spots of PBS + 2% glycerol only spots is applied to determine if […]
(§18) Only spots with values equal to or greater than this value were considered as binding from data of any tested slide. These values are slide dependent. […]

Tlp2 [2] = biological target: T2, Tlp2 (Campylobacter jejuni, UniProt Q0PBZ3); format: binding
Experimental: as §1, §2, §3, §4, §5, §6, §7, §8, §9, §10, §11, §12, §13, §14, §15, §16, §17, §18

Tlp4 [3] = biological target: T3, Tlp4 (Campylobacter jejuni, UniProt Q0PBP3); format: binding
Experimental: as §1, §2, §3, §4, §5, §6, §7, §8, §9, §10, §11, §12, §13, §14, §15, §16, §17, §18

Tlp2 [4] = biological target: T2, Tlp2; experiment: biochemical; format: binding
Experimental: (§19) His-tagged proteins (Tlp2, -3, and -4) were prepared as previously described ([11]) DNA segments encoding the periplasmic sensory domains (33 to 286 amino acids) of Tlp2 and (38 to 297 amino acids) of Tlp4 were amplified (see Table S7), ligated into pGEM-T Easy (Promega) and subcloned into pET-19b (Novagen) (see Table S6). Recombinant proteins were expressed in E. coli BL21(DE3) using 1 mM IPTG (isopropyl-β-D-thiogalactopyranoside) and purified using His-select-nickel chromatography as described previously ([8], [11]). The purity of the proteins was confirmed by SDS-PAGE and Western blot analysis with anti-His antibodies (Bio-Rad). Protein concentrations were determined using a NanoDrop spectrophotometer (Thermo Fisher).
(§20) Surface plasmon resonance (SPR) experiments were performed as described previously ([10], [11]) with the following modifications. Briefly, purified proteins were diluted to 0.15 μM in sodium acetate (pH 4.0) and immobilized onto an active flow cell of a CM5 sensor chip with a flow rate of 5 μL/min for 7 min of contact time using a standard amine coupling protocol. Immobilized protein levels for all three proteins ranged from 6028.3 to 9779.3 response units (RU) providing a minimum expected response maximum (RMax) between 20 and 50 RU for the small molecules tested. […] All ligands were prepared in PBS (pH 7.2) and serially diluted from 0.2 to 0.0125 mM. A 10-min dissociation period was allocated after the introduction of each analyte. SPR experiments were performed in single-cycle kinetics mode using the BIAcore S200 biosensor system (Cytiva) at 25°C in PBS (pH 7.2) at a flow rate of 30 μL/min. The equilibrium dissociation constant (KD) for each analyte was determined using BIAcore S200 Evaluation software with a report point 4 s after the injection stop to account for the bulk transfer of the small molecule against a large amount of immobilized protein (as shown in Fig. S5).

Tlp4 [5] = biological target: T3, Tlp4; experiment: biochemical; format: binding
Experimental: as §19, §20

Tlp3 [6] = biological target: T1, Tlp3; experiment: biochemical; format: binding
Experimental: as §19, with “The purity of the proteins was confirmed by SDS-PAGE and Western blot analysis with anti-His antibodies (Bio-Rad).” left out
Surface plasmon resonance (SPR) experiments were performed as described previously ([10], [11]) with the following modifications. […] All ligands were prepared in PBS (pH 7.2) and serially diluted from 0.2 to 0.0125 mM. A 10-min dissociation period was allocated after the introduction of each analyte. SPR experiments were performed in single-cycle kinetics mode using the BIAcore S200 biosensor system (Cytiva) at 25°C in PBS (pH 7.2) at a flow rate of 30 μL/min. The equilibrium dissociation constant (KD) for each analyte was determined using BIAcore S200 Evaluation software with a report point 4 s after the injection stop to account for the bulk transfer of the small molecule against a large amount of immobilized protein (as shown in Fig. S5).

Tlp3^LBD D169A = Tlp3^LBD D169A (Campylobacter jejuni, UniProt Q0P864, D169A); experiment: biochemical
Tlp3^LBD W151A = Tlp3^LBD W151A (Campylobacter jejuni, UniProt Q0P864, W151A); experiment: biochemical
Tlp3^LBD D170A = Tlp3^LBD D170A (Campylobacter jejuni, UniProt Q0P864); experiment: biochemical
Δtlp2,3,4 triple mutant = format: cell-based; settings: compared with the other mutants
Tlp3^LBD K149A = Tlp3^LBD K149A (Campylobacter jejuni, UniProt Q0P864, K149A); experiment: biochemical
Tlp3^LBD D196A = Tlp3^LBD D196A (Campylobacter jejuni, UniProt Q0P864, D196A); experiment: biochemical
[7] = SPR KD, mean ± SD, NB = no binding, read-out: Tlp2 Affinity
[8] = SPR KD, mean ± SD, NB = no binding, read-out: Tlp4 Affinity

T1 sequence (Q0P864 entry or part of it): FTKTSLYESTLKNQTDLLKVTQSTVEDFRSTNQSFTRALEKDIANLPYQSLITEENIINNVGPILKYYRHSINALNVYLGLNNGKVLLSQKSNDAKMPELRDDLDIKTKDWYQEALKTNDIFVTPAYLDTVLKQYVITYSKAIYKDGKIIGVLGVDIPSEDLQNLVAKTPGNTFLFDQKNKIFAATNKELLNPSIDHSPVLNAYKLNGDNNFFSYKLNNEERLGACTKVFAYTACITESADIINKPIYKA
T3 sequence (Q0PBP3 entry or part of it): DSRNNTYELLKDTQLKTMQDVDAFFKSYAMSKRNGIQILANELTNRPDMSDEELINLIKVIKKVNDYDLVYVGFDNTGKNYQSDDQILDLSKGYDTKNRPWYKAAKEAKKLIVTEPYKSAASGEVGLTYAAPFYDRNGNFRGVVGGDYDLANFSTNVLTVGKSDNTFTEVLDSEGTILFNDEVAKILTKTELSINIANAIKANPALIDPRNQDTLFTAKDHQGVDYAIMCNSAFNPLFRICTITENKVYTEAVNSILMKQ
T2 sequence (Q0PBZ3 entry or part of it): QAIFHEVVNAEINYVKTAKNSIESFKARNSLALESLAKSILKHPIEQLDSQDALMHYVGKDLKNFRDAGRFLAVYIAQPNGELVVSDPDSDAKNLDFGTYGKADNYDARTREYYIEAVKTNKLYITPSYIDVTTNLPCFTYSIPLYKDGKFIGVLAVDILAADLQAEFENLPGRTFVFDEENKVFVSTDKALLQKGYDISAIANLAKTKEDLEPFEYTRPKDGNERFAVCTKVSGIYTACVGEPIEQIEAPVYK
Sequence of Tlp3^LBD D169A (Q0P864 41-290 D169A): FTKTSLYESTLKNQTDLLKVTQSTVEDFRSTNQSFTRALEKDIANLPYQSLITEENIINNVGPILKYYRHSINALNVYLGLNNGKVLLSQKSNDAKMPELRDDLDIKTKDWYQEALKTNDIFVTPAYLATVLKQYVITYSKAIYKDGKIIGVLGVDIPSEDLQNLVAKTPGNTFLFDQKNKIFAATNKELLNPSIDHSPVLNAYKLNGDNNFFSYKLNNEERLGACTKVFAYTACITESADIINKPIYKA
Sequence of Tlp3^LBD D170A (Q0P864 41-290 T170A): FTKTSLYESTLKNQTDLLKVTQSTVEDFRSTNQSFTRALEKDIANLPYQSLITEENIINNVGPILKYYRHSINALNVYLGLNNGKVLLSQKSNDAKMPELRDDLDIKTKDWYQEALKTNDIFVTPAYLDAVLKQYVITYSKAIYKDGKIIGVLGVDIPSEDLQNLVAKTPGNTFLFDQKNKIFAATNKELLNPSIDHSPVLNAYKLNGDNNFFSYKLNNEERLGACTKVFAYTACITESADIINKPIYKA
Sequence of Tlp3^LBD W151A (Q0P864 41-290 W151A): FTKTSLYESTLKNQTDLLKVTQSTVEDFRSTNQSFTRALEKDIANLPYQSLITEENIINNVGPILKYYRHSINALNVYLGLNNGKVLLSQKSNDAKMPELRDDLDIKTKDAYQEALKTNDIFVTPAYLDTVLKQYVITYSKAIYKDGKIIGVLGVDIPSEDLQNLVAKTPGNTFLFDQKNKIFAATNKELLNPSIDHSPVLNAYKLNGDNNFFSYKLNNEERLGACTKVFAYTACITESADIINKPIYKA
Sequence of Tlp3^LBD D196A (Q0P864 41-290 D196A): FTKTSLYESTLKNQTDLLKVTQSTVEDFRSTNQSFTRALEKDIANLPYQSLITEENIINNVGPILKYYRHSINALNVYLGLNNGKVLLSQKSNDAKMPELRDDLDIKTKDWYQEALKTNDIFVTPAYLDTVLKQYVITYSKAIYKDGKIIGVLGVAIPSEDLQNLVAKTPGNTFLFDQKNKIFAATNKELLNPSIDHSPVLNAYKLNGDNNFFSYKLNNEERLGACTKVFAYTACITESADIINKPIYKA
Sequence of Tlp3^LBD K149A (Q0P864 41-290 K149A): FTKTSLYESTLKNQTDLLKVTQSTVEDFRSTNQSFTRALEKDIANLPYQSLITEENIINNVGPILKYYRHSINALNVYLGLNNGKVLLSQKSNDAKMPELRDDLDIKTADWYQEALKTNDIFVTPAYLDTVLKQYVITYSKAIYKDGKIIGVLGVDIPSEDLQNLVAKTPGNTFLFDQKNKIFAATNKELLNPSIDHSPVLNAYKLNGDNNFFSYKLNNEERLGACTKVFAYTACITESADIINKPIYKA

Row | SMILES | SPR response of single analyte (WT Tlp3^LBD) | binding to Tlp3 on glycan/small molecule array (Tlp3 [1]) | binding to Tlp2 on glycan/small molecule array (Tlp2 [2]; yes/no binding) | binding to Tlp4 on glycan/small molecule array (Tlp4 [3]; yes/no binding) | Kd (Tlp2 [4]; [7]) | Kd (Tlp4 [5]; [8]) | also measured
1 | OC[C@H]1OC(O)[C@H](O)[C@@H](O)[C@@H]1O (stereo partly drawn) [Glucose] | 5.07 RU | interacted | interacted | interacted | 18.1 ± 2.2 µM | 18.3 ± 1.1 µM | 
2 | CC[C@H](C)[C@H](N)C(=O)O [Isoleucine] |  |  |  |  | > 200 µM | > 200 µM | 
3 | O=C(O)CC(O)C(=O)O (stereo not drawn) [Malic acid] | 13.5 RU |  |  |  | > 10000 µM | > 10000 µM | 
4 | CSCC[C@H](N)C(=O)O [Methionine] |  |  |  |  |  |  | Kd (Tlp3 [6]; read-out: Tlp3 Affinity): > 200 µM; binding to Tlp2 on glycan/small molecule array (Tlp2 [2]): bound; binding to Tlp4 on glycan/small molecule array (Tlp4 [3]): bound; Kd (Tlp2 [4]): 1.9 ± 1.2 µM; Kd (Tlp4 [5]): 6 ± 4.7 µM
5 | c1ncc2nc[nH]c2n1 [Purine] |  | bind specifically | bound | bound | 5.4 ± 1.1 µM | 1.2 ± 0.7 µM | Kd (Tlp3^LBD D169A): 15.7 ± 6.6 µM; Kd (Tlp3^LBD W151A): 36.1 ± 15.7 µM; Kd (Tlp3^LBD D170A): 20.6 ± 4 µM; migration toward ligand, Δtlp2,3,4 triple mutant (Δtlp2,3,4 triple mutant): greatest reduction in migration; Kd (Tlp3 [6]): 37.2 ± 17.4 µM; Kd (Tlp3^LBD K149A): 41.9 ± 24 µM; Kd (Tlp3^LBD D196A): 35.8 ± 1.5 µM
6 | N[C@@H](CO)C(=O)O [Serine] |  |  | bound | bound | 6.9 ± 2.4 µM | 14.3 ± 3.2 µM | Kd (Tlp3 [6]; SPR KD, mean ± SD, NB = no binding, read-out: Tlp3 Affinity): > 200 µM
